From the NIST ThermoML archive (doi:10.1016/j.fluid.2018.12.016)
± gives the expanded uncertainty stated by the source.

Details: Liquid, Surface laser light scattering (SLLS)

C [methane] + CCCCCCCCCC
Details | interfacial tension [mN/m]
310.93 K, 36221 kPa | 1.41e-05 ± 5.6e-06
310.94 K, 36221 kPa | 1.93e-05 ± 3.8e-06
310.95 K, 36187 kPa | 0.000902 ± 6e-05
310.96 K, 36198 kPa | 0.000591 ± 3.6e-05
310.97 K, 34448 kPa | 0.1569 ± 0.0011
310.97 K, 35150 kPa | 0.08112 ± 0.00074
310.97 K, 35795 kPa | 0.0247 ± 0.00088
310.97 K, 35857 kPa | 0.01978 ± 0.00034
310.97 K, 35989 kPa | 0.01122 ± 0.00022
310.97 K, 36092 kPa | 0.00519 ± 0.00022
310.97 K, 36215 kPa | 0.0001152 ± 1e-05
310.97 K, 36218 kPa | 4.75e-05 ± 7e-06
310.98 K, 35498 kPa | 0.04752 ± 0.0005
310.98 K, 35946 kPa | 0.014 ± 0.0002
310.98 K, 36206 kPa | 0.000326 ± 5.6e-05
310.99 K, 36151 kPa | 0.002584 ± 9.4e-05
311 K, 36213 kPa | 0.00015 ± 3.6e-05
311.12 K, 35885 kPa | 0.01746 ± 0.00032
